Measurements published in ChEMBL document CHEMBL1201862, “PubChem BioAssay data set” (2004).
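The compound was tested at five concentrations on cells cultured in 96-well plates, with a 48-hour exposure period. At the GI50, growth is halved.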 Active and inactive are the calls of the source. Cut-off read from the data, not from the text of the source: active = GI50 up to about 1.1 µM and inactive = higher.

Columns and labels:
Experiment in all cases: DTP human tumour cell line panel, 48 h
LOX IMVI = tested on: LOX IMVI
SN12C = tested on: SN12C
TK-10 = tested on: TK-10
HCT-15 = tested on: HCT-15
OVCAR-8 = tested on: OVCAR-8
SF-268 = tested on: SF-268
SK-MEL-28 = tested on: SK-MEL-28
SF-295 = tested on: SF-295
EKVX = tested on: EKVX
SNB-19 = tested on: SNB-19
OVCAR-4 = tested on: OVCAR-4
SF-539 = tested on: SF-539
COLO 205 = tested on: COLO 205
UO-31 = tested on: UO-31
CAKI-1 = tested on: CAKI-1
Malme-3M = tested on: Malme-3M
A549 = tested on: A549

In the case of `COc1cc(/C=C/c2ccc(OC(C)=O)cc2)cc(OC)c1OC`, the GI50 (LOX IMVI) is reported as 29.2 µM (inactive), the GI50 (SN12C) is reported as 42 µM (inactive) and the GI50 (TK-10) is reported as 31.9 µM (inactive). For the same molecule, the GI50 (HCT-15) was 27.8 µM, the GI50 (OVCAR-8) was 31.2 µM (inactive) and the GI50 (SF-268) was 32 µM (inactive). The GI50 (SK-MEL-28) was 41.5 µM (inactive), the GI50 (SF-295) was 26.6 µM (inactive) and the GI50 (EKVX) was 26.3 µM (inactive). For the same molecule, the GI50 (SNB-19) was 34 µM (inactive), the GI50 (OVCAR-4) was 22.8 µM (inactive) and the GI50 (SF-539) was 18.6 µM (inactive). The GI50 (COLO 205) was 27.8 µM (inactive), the GI50 (UO-31) was 21.1 µM (inactive) and the GI50 (CAKI-1) was 27.9 µM (inactive). For the same molecule, the GI50 (Malme-3M) was 26 µM (inactive) and the GI50 (A549) was 26.1 µM (inactive).
For `CCCCCCCC(=O)OC(CBr)COC(=O)C(C)(C)C` (stereo not given), the GI50 (LOX IMVI) was > 63.2 µM (inactive), the GI50 (SN12C) was > 100 µM (inactive) and the GI50 (TK-10) was > 100 µM (inactive). For the same molecule, the GI50 (HCT-15) was > 100 µM, the GI50 (OVCAR-8) was > 100 µM (inactive) and the GI50 (SF-268) was > 100 µM (inactive). For the same molecule, the GI50 (SK-MEL-28) was > 100 µM (inactive), the GI50 (SF-295) was > 100 µM (inactive) and the GI50 (EKVX) was > 100 µM (inactive). For the same molecule, the GI50 (SNB-19) was > 100 µM (inactive), the GI50 (OVCAR-4) was > 95.1 µM (inactive) and the GI50 (SF-539) was > 10 µM (inactive). For the same molecule, the GI50 (COLO 205) was > 100 µM (inactive), the GI50 (UO-31) was > 100 µM (inactive) and the GI50 (CAKI-1) was > 100 µM (inactive). For the same molecule, the GI50 (Malme-3M) was > 100 µM (inactive) and the GI50 (A549) was > 100 µM (inactive).
`O=C1C=C(Br)C(=O)C(Br)=C1` was tested, and the GI50 (LOX IMVI) was > 31.6 µM (inactive), the GI50 (SN12C) was > 59.6 µM (inactive) and the GI50 (TK-10) was > 100 µM (inactive). The GI50 (HCT-15) was > 79.8 µM, the GI50 (OVCAR-8) was > 100 µM (inactive) and the GI50 (SF-268) was > 100 µM (inactive). The GI50 (SK-MEL-28) was > 100 µM (inactive), the GI50 (SF-295) was > 100 µM (inactive) and the GI50 (EKVX) was > 100 µM (inactive). The GI50 (SNB-19) was > 100 µM (inactive), the GI50 (OVCAR-4) was > 100 µM (inactive) and the GI50 (SF-539) was > 100 µM (inactive). The GI50 (COLO 205) was > 61.4 µM (inactive), the GI50 (UO-31) was > 100 µM (inactive) and the GI50 (CAKI-1) was > 100 µM (inactive). For the same molecule, the GI50 (Malme-3M) was > 100 µM (inactive) and the GI50 (A549) was > 100 µM (inactive).
In the case of `CSc1nc(NC2OCC(OC(C)=O)C(OC(C)=O)C2OC(C)=O)c(/N=C\C=N\c2c(NC3OCC(OC(C)=O)C(OC(C)=O)C3OC(C)=O)nc(SC)n(C)c2=O)c(=O)n1C` (stereo not given), the GI50 (LOX IMVI) is reported as > 100 µM (inactive), the GI50 (SN12C) is reported as > 100 µM (inactive) and the GI50 (TK-10) is reported as > 100 µM (inactive). For the same molecule, the GI50 (HCT-15) was > 100 µM, the GI50 (OVCAR-8) was > 100 µM (inactive) and the GI50 (SF-268) was > 100 µM (inactive). The GI50 (SK-MEL-28) was > 100 µM (inactive), the GI50 (SF-295) was > 100 µM (inactive) and the GI50 (EKVX) was > 100 µM (inactive). The GI50 (SNB-19) was 38.4 µM (inactive), the GI50 (OVCAR-4) was > 100 µM (inactive) and the GI50 (SF-539) was > 100 µM (inactive). The GI50 (COLO 205) was > 100 µM (inactive), the GI50 (UO-31) was > 100 µM (inactive) and the GI50 (Malme-3M) was > 100 µM (inactive). The GI50 (A549) was > 100 µM (inactive).
In the case of `CC(C)=CC(=O)c1c(C(=O)O)nc2ccccc2[n+]1[O-]`, the GI50 (LOX IMVI) is reported as > 100 µM (inactive), the GI50 (SN12C) is reported as > 100 µM (inactive) and the GI50 (TK-10) is reported as > 100 µM (inactive). The GI50 (HCT-15) was > 100 µM, the GI50 (SF-268) was > 100 µM (inactive) and the GI50 (SK-MEL-28) was > 100 µM (inactive). For the same molecule, the GI50 (SF-295) was > 100 µM (inactive), the GI50 (EKVX) was > 100 µM (inactive) and the GI50 (SNB-19) was > 100 µM (inactive). The GI50 (OVCAR-4) was > 100 µM (inactive), the GI50 (SF-539) was > 100 µM (inactive) and the GI50 (COLO 205) was > 100 µM (inactive). For the same molecule, the GI50 (UO-31) was > 100 µM (inactive), the GI50 (CAKI-1) was > 100 µM (inactive) and the GI50 (A549) was > 100 µM (inactive).
For `COc1cc(/C=C\c2ccccc2)cc(OC)c1OC`, the GI50 (LOX IMVI) was 4.6 µM (inactive), the GI50 (SN12C) was 5 µM (inactive) and the GI50 (TK-10) was 3.94 µM (inactive). For the same molecule, the GI50 (HCT-15) was 2.6 µM, the GI50 (OVCAR-8) was 3.69 µM (inactive) and the GI50 (SF-268) was 6.55 µM (inactive). The GI50 (SK-MEL-28) was 6.28 µM (inactive), the GI50 (SF-295) was 2.18 µM (inactive) and the GI50 (EKVX) was 6.01 µM (inactive). For the same molecule, the GI50 (SNB-19) was 6.08 µM (inactive), the GI50 (OVCAR-4) was 6.46 µM (inactive) and the GI50 (SF-539) was 2.56 µM (inactive). For the same molecule, the GI50 (COLO 205) was 3.08 µM (inactive), the GI50 (UO-31) was 4.46 µM (inactive) and the GI50 (CAKI-1) was 4.36 µM (inactive). For the same molecule, the GI50 (Malme-3M) was 2.95 µM (inactive) and the GI50 (A549) was 5.28 µM (inactive).
In the case of `Cc1ccc(C(=O)O/N=C2/CCC/C2=C\c2ccccc2)cc1`, the GI50 (LOX IMVI) is reported as > 100 µM (inactive), the GI50 (SN12C) is reported as > 100 µM (inactive) and the GI50 (TK-10) is reported as > 100 µM (inactive). For the same molecule, the GI50 (HCT-15) was > 100 µM, the GI50 (OVCAR-8) was > 100 µM (inactive) and the GI50 (SF-268) was 29.1 µM (inactive). The GI50 (SK-MEL-28) was > 100 µM (inactive), the GI50 (SF-295) was > 100 µM (inactive) and the GI50 (EKVX) was > 100 µM (inactive). The GI50 (OVCAR-4) was > 100 µM (inactive), the GI50 (SF-539) was > 100 µM (inactive) and the GI50 (COLO 205) was > 100 µM (inactive). For the same molecule, the GI50 (UO-31) was > 100 µM (inactive), the GI50 (CAKI-1) was > 100 µM (inactive) and the GI50 (Malme-3M) was > 100 µM (inactive). The GI50 (A549) was > 100 µM (inactive).
In the case of `Cn1c(CBr)nc2c1C(=O)c1nc(CBr)[nH]c(=O)c1C2=O`, the GI50 (LOX IMVI) is reported as 50.1 µM (inactive), the GI50 (SN12C) is reported as > 100 µM (inactive) and the GI50 (TK-10) is reported as > 100 µM (inactive). The GI50 (HCT-15) was > 100 µM, the GI50 (OVCAR-8) was > 100 µM (inactive) and the GI50 (SF-268) was > 100 µM (inactive). For the same molecule, the GI50 (SK-MEL-28) was > 100 µM (inactive), the GI50 (SF-295) was > 100 µM (inactive) and the GI50 (EKVX) was > 100 µM (inactive). For the same molecule, the GI50 (SF-539) was > 100 µM (inactive), the GI50 (COLO 205) was > 100 µM (inactive) and the GI50 (UO-31) was > 100 µM (inactive). The GI50 (CAKI-1) was > 100 µM (inactive) and the GI50 (A549) was > 100 µM (inactive).
With `CN1/C(=C/C(=O)c2ccc(Cl)cc2)Nc2ccccc21` the GI50 (LOX IMVI) was 39.3 µM (inactive), the GI50 (SN12C) was 60.4 µM (inactive) and the GI50 (HCT-15) was 45.9 µM. The GI50 (OVCAR-8) was 83.9 µM (inactive), the GI50 (SF-268) was 43.9 µM (inactive) and the GI50 (SK-MEL-28) was 99.1 µM (inactive). For the same molecule, the GI50 (SF-295) was 44.9 µM (inactive), the GI50 (EKVX) was 23.1 µM (inactive) and the GI50 (SNB-19) was 41.6 µM (inactive). The GI50 (OVCAR-4) was 77.6 µM (inactive), the GI50 (SF-539) was 58.7 µM (inactive) and the GI50 (COLO 205) was 38 µM (inactive). For the same molecule, the GI50 (UO-31) was 13.2 µM (inactive), the GI50 (CAKI-1) was 20 µM (inactive) and the GI50 (Malme-3M) was > 100 µM (inactive). The GI50 (A549) was 25.9 µM (inactive).
